{"source": "patent US9918931B2", "about": "“Method for providing a customized skin care product to a customer” (L'OREAL, priority 2016, dated 2018)", "assay": "Solubility of active ingredients in base oil composition", "type": "physicochemical", "settings": "active ingredient in base oil composition; loading without asterisk"}
{"smiles": "O=C(O)c1ccccc1O", "note": "[Salicylic Acid, reference compound]", "values": [{"measurement": "Loading (wt %), soluble (not marked *)", "result": 3, "unit": "%"}]}
